Experimental data reported in US20090012053A1, “Use of LXR agonists for the treatment of osteoarthritis” (Wyeth, priority 2006, published 2009).

System: aggrecanase
Assay: Western blot of aggrecanase-generated aggrecan neoepitopes (BC3, AGEG antibodies) in culture medium of human OA cartilage explants
Assay type: cell-based
Protocol: FIG. 4A is a Western blot showing aggrecanase-generated aggrecan neoepitopes using BC-3 antibody, which recognizes the N-terminus on aggrecanase-generated aggrecan catabolites. Cartilage explants from two human donors with end stage OA (after joint replacement surgery) were used. Donor #259 is a patient, and donor #261 is a patient. Lanes 1, 5: vehicle. Lanes 2, 6: TO901317 (2 μM). Lanes 3, 7: IL-1β+oncostatin M (OSM) (10 ng/ml each). Lanes 4, 8: IL-1β+OSM+TO901317. FIG. 4B is a Western blot showing aggrecanase-generated aggrecan neoepitopes using AGEG antibody, which recognizes a different epitope on aggrecanase-generated aggrecan catabolites. Lanes 1, 5: vehicle. Lanes 2, 6: TO901317 (2 μM). Lanes 3, 7: IL-1β+OSM (10 ng/ml each). Lanes 4, 8: IL-1β+OSM+TO901317. Fresh cartilage from human OA donors was cut into pieces (˜10 mg/piece, ˜2×2×2 mm). The cartilage explants were randomized into 24 well plates (˜250 mg wet weight/well). Three wells of explants were included for each treatment group. The explants were cultured in 1 ml DMEM/F-12 with 10% FBS for 3 days, then the complete medium was replaced with serum-free medium. Twelve hours later, the medium was removed and fresh serum-free medium (1 ml) was added, followed by LXR agonist T0901317 treatment (2 μM). IL1β/Oncostatin M (10 ng/ml each) were added 8 hours later. The explants were then cultured in the presence or absence of LXR agonist T0901317 and IL1β/Oncostatin M for additional 20 hours. 180 μl of pooled culture medium from each treatment group was deglycosylated with chondroitinase ABC, keratanase, keratanase II in the presence of 50 mM EDTA at 37° C. for 3 hrs. The samples were then concentrated and separated in a 4-12% SDS-PAGE gel. Western analysis was performed using either mouse BC3 neoepitope antibody (1:1500), or rabbit anti-AGEG antibody (1:1000) as the primary antibody, and anti-mouse or anti-rabbit IgG antibody conjugated with […] (1:5000) as the secondary antibody. […] Treatment with T0901317 blocked the induction of BC3 and AEEG release by cytokines. In the experiment using donor #261, BC3- and AEGE-containing aggrecan fragments were released into the culture medium from untreated cartilage explants.

O=S(=O)(c1ccccc1)N(CC(F)(F)F)c1ccc(C(O)(C(F)(F)F)C(F)(F)F)cc1 [Formula T0901317, N-(2,2,2-trifluoroethyl)-N-{4-[2,2,2-trifluoro-1-hydroxy-1-(trifluoromethyl)ethyl]phenyl}benzene sulfonamide]
cytokine-induced release of BC3 containing aggrecan fragments into the culture medium (donor #259, 2 μM, IL1β/Oncostatin M 10 ng/ml each, FIG. 4A): blocked
cytokine-induced release of AGEG containing aggrecan fragments into the culture medium (donor #259, 2 μM, IL1β/Oncostatin M 10 ng/ml each, FIG. 4B): blocked
cytokine-induced release of AGEG-containing fragment from the explants (donor #261, 2 μM, IL1β/Oncostatin M 10 ng/ml each, FIG. 4B): it was blocked
amount of BC3-containing aggrecan fragments released into the culture medium without cytokines (donor #261, 2 μM, no cytokine, FIG. 4A): reduced the amount of these fragments
amount of AGEG-containing aggrecan fragments released into the culture medium without cytokines (donor #261, 2 μM, no cytokine, FIG. 4B): reduced the amount of these fragments
